“Also recorded” adds a separate entry of the source.
Legend:
[1] = test system: Lewis rats; test: Rat posterolateral intertransverse process spinal fusion L4-L5 (Example 7); type: in vivo; conditions: week 8
Description: Methods: Five groups of 50 Lewis rats each underwent posterolateral intertransverse process spinal fusion at vertebrae L4-L5 with implanted: BBP (500 μg) (Group 1); BBP (1000 μg) (Group 2), collagen plus low dose BMP-2 (1 μg) (Group 3), BBP (500 μg) plus low dose BMP (1 μg) (Group 4) and BBP (1000 μg) plus low dose BMP (1 μg) (Group 5). Control groups included a negative group (decortication) and positive control group (collagen plus 3 μg BMP).
All rats underwent post-operative radiography at 2, 4, 6, and 8 weeks. Manual spinal palpation was performed at 8 weeks, after the time of sacrifice. Bone formation was assessed in histological sections stained with H&E.

[2] = test system: male Swiss-Weber mice; test: Mouse hindquarter (muscle pouch) ectopic bone formation assay, BBP; type: in vivo; conditions: for Bone Area / Bone Mineral Content: densitometry
Description: Methods: The osteogenic activity of material was tested using male Swiss-Weber mice aged 8 to 10 weeks were used (Taconic Farms, Germantown, N.Y.). Prior to the assay, the BBP was solublized and lyophilized into 2 mg of atelocollagen. The dried material was placed in a #5 gelatin capsule and sterilized by exposure to chloroform vapor. To conduct the assay, mice were anesthetized using 1% isoflurane delivered in oxygen at 2 l/min through a small animal anesthesia machine (VetEquip, Pleasanton, Calif.). Animals were affixed to a surgery board and the fur over the hindquarters shaved. The skin was cleaned with 70% ethanol and a midline incision made over the spine adjacent to the hindquarters. Blunt dissection with scissors was used to expose the quadriceps muscle on one side. A small pouch was made in the muscle using the point of scissors and the #5 capsule containing the test material was inserted into the pouch. The skin was then closed with three 11 mm Michel surgical clips and the animal returned to its cage for monitoring.
After 21 days the animals were killed and the hindquarter removed. Radiological examination of the specimens was accomplished using a small parts X-Ray cabinet (Faxitron, Wheeling, Ill.). For quantization of bone formation, bone area and the bone mineral content (BMC) of an area of interest encompassing the site of ectopic bone formation was determined using a PIXImus2 small animal densitometer (GE Lunar, Madison, Wis.). Specimens were then placed in buffered formalin and submitted for routine processing for histological examination.

[3] = test system: Lewis rats; test: Rat posterolateral intertransverse process spinal fusion L4-L5 (Example 6); type: in vivo; conditions: Group 1: BBP 500 μg only, week 8
Description: All rats underwent post-operative radiography at 2, 4, 6, and 8 weeks. Manual spinal palpation was performed at 8 weeks, the time of sacrifice. Bone formation was assessed in histological sections stained with H&E.

[4] = test system: Lewis rats; test: Rat posterolateral intertransverse process spinal fusion L4-L5 (Example 8); type: in vivo; conditions: for Histology, fused / Manual Palpation, fused: 8th week
Description: Methods: Posterolateral intertransverse process spinal fusion at L4-L5 was performed in five treatment groups of Lewis rats each, and collagen sponges (5×5×13 mm) were implanted into the surgical sites.
Each sponge was placed in a sterile microfuge tube and either a suspension of BBP (500 μg or 1000 μg) in water or sterile water alone was applied. The sponges were allowed to air dry in a tissue culture hood overnight and then placed at −70° C. for an hour and lyophilized overnight. The tubes (with small holes in the top to allow for lyophilization) were placed in autoclave pouches and sealed. The materials were then sterilized by exposure to chloroform vapor for at least 4 hours.
The posterolateral intertransverse process spinal fusion at L4-L5 in the rat is a well established procedure in our laboratory 13-17. Briefly, the animal was anesthetized with isofluane and the surgical site was shaved and propped with Betadyne and alcohol. A 3 cm longitudinal midline incision was made through the skin and subcutaneous tissue over L4-L5 down to the lumbodorsal fascia. Then, two separate 2 cm longitudinal paramedial incisions were made in the erector spinae muscles on both sides of L4-L5. The transverse processes of L4-L5 were exposed, cleaned of soft tissue, and decorticated with a high-speed burr. The site was irrigated with saline and the therapeutic test material was placed. The lumbodorsal fascia was closed with 4-0 Prolene (Ethicon, Somerville, N.J.). The skin was closed with 4-0 Prolene and meticulous post-operative care was provided.
These were compared to control groups. Fusion was evaluated by radiology, histology and manual palpation tests. Animals were sacrificed 8 weeks after surgery.
The results of the surgeries were assessed radiologically, histologically, and by manual palpation. Posteroanterior radiographs were obtained using a small parts X-ray cabinet (Faxitron Corp., Wheeling, Ill.) on each animal at 2, 4, 6 and 8 weeks. Radiograms were evaluated by three independent observers employing the following standardized scale: 0: no fusion; 1: incomplete fusion with bone formation present; and 2: complete fusion. The scores from the three observes were added and a total of 5 or 6 was regarded as “fused”. Manual palpation of the spine was performed at the time of sacrifice at 8 weeks. To simulate the gold standard for determining fusion in humans, exploration and manual palpation of the fusion mass were performed after death. The level fused was manually palpated with Adson forceps and compared with the adjacent nonfused levels. Each specimen was graded as fused or non-fused by three independent observers. The spine was designated as “not fused” if any of the three observers graded the spine as not fused. After manual palpation, the specimens were decalcified using standard 10% decalcifying solution HCl (Cal-Ex, Fisher Scientific, Fairlawn, N.J.), washed with running tap water, then transferred to 75% ethanol. Sagittal sections were cut carefully at the level of the transverse process. The specimens were imbedded in paraffin and sections of each specimen obtained. These sections were stained with hematoxylin and eosin. They were evaluated by an independent observer as fused and not fused.
The proportions of subjects in each group judged to be “fused” were compared in sequential two group comparisons with Fisher's exact test using SPSS software. A p score of less than or equal to 0.05 was set for statistical significance.

[5] = molecular target: T1, rhBMP-2 (Homo sapiens, UniProt P12643); test: Residence time study: BBP and rhBMP-2 on collagen sponges in muscle pouches; type: in vivo, rodents
T1 sequence (P12643 283-396): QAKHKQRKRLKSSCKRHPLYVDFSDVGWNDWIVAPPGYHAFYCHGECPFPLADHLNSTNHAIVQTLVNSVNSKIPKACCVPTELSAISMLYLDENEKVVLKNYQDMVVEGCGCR
Source text: Methods: Labeled rhBMP-2 was mixed with BBP or vehicle and applied to collagen sponges. The sponges were implanted into muscle pouches in rodents. At specified times (1, 3 and 7 days), the implants were removed and the amount of BMP remaining determined. Four animals were used in each group.

[6] = molecular target: T1, rhBMP-2; test: Surface plasmon resonance, interaction of rhBMP-2 and BBP; type: binding; conditions: BBP decyclized by prior reduction with β-mercaptoethanol
Description: Buffers and chips for the procedure were obtained from Biacore. […] This material was then attached to a CM-5 sensor chip using reagents and procedures supplied by the manufacturer. Running butter was 10 mM HEPES, pH 7.4, 150 mM NaCl, 3 mM EDTA, 0.005% Surfactant P20, The peptide was dissolved in running buffer at concentrations ranging from 1×10^−5 to 1×10^−4 M. Flow rates from 5 to 50 μl/mm and injection volumes of 20 to 100 μl were employed. The regeneration solution was […] glycine-HCl, pH 2.0.

[7] = BBP 50 μg implanted with 5 μg rhBMP-2, 21 days
[8] = BBP 500 μg implanted with 5 μg rhBMP-2, 21 days

increase of rhBMP-2 retention (factor) ([5]; collagen sponges in muscle pouches, 1, 3 and 7 days, versus vehicle): about two | retention of rhBMP-2 (fold) ([5]; for up to seven days in vitro and in vivo): two | binding to rhBMP-2 [6]: no significant binding
SMILES: CSCC[C@@H]1NC(=O)[C@H](CCCNC(=N)N)NC(=O)[C@H](C(C)C)NC(=O)[C@H]([C@@H](C)O)NC(=O)[C@H](CO)NC(=O)[C@H](CCCNC(=N)N)NC(=O)[C@@H](N)CSSC[C@@H](C(=O)O)NC(=O)[C@H](CCCNC(=N)N)NC(=O)[C@H](C(C)C)NC(=O)[C@H](Cc2c[nH]c3ccccc23)NC(=O)[C@H](C(C)C)NC(=O)[C@H](CC(N)=O)NC(=O)[C@H](CCC(N)=O)NC(=O)[C@H](C(C)C)NC(=O)[C@H](CCC(N)=O)NC(=O)[C@H](CCC(=O)O)NC(=O)[C@H](C)NC(=O)[C@H](CO)NC1=O [BBP]
fusion by manual palpation ([1]; Group 1: BBP 500 μg only): 0% | fusion by manual palpation ([1]; Group 2: BBP 1000 μg only): 0% | calcification after implantation of BBP alone ([2]; 500 μg BBP in atelocollagen, mouse muscle, 21 days, radiogram/histology): induced calcification; also recorded: dystrophic calcification primarily associated with intramuscular adipose tissue; also recorded: ectopic dystrophic calcification formation | amount of ectopic bone formed versus rhBMP-2 alone ([2]; 500 μg BBP with 5 μg rhBMP-2, densitometry): consistently greater | Bone Area [2, 7]: 0.159 ± 0.0606 cm^2 | Bone Mineral Content [2, 7]: 0.00388 ± 0.0017 g | Bone Area [2, 8]: 0.226 ± 0.0270 cm^2 | Bone Mineral Content [2, 8]: 0.00528 ± 0.00068 g | Fusion Rates [3]: 14% | fusion with BBP alone ([4]; 500 μg or 1000 μg BBP alone, any time point): none of the animals in low and high dose BBP groups developed fusion at any time points; also recorded: did not provide fusion | radiological examination, fused, Week 2nd ([4]; high dose BBP only (1000 μg)): 0% | radiological examination, fused, Week 4th ([4]; high dose BBP only (1000 μg)): 0% | radiological examination, fused, Week 6th ([4]; high dose BBP only (1000 μg)): 0% | radiological examination, fused, Week 8th ([4]; high dose BBP only (1000 μg)): 0% | Histology, fused ([4]; high dose BBP only (1000 μg)): 0% | Manual Palpation, fused ([4]; high dose BBP only (1000 μg)): 0% | radiological examination, fused, Week 2nd ([4]; low dose BBP only (500 μg)): 0% | radiological examination, fused, Week 4th ([4]; low dose BBP only (500 μg)): 0% | radiological examination, fused, Week 6th ([4]; low dose BBP only (500 μg)): 0% | radiological examination, fused, Week 8th ([4]; low dose BBP only (500 μg)): 0% | Histology, fused ([4]; low dose BBP only (500 μg)): 0% | Manual Palpation, fused ([4]; low dose BBP only (500 μg)): 0%
